In ChEMBL document CHEMBL6120970, “Discovery and Functional Characterization of a Potent, Selective, and Metabolically Stable PROTAC of the Protein Kinases DYRK1A and DYRK1B” (J Med Chem, 2024):
Active and inactive are the calls of the source. The rule behind the calls is not given here.

Tests used:
[1] = target: T1, Protein cereblon/Dual specificity tyrosine-phosphorylation-regulated kinase 1A (Homo sapiens, UniProt Q13627+Q96SW2); assay: PROTAC activity at CRBN/DYRK1A in HEK293 cells assessed as induction of degradation of DYRK1A at 100 nM pretreated with leucettine-41 followed by compound addition and incubated for 8 hrs; format: cell-based
[2] = target: T1, Protein cereblon/Dual specificity tyrosine-phosphorylation-regulated kinase 1A; assay: PROTAC activity at CRBN/DYRK1A in Flp-In-T-REx-293 cells overexpressing GFP-DYRK1A assessed as half life at 1 uM measured upto 6 hrs by fluorescence based phase contrast microscopy analysis; format: cell-based
[3] = Metabolic stability in mouse liver microsomes assessed as half life; format: ADME, Microsome
[4] = Cmax in mouse at 10 mg/kg, po administered as single dose; format: ADME, organism-based; conditions: in vivo
[5] = test system: HEK293; assay: Effect on DCAF7 expression in HEK293 cells at 1 to 10000 nM; format: functional, cell-based; conditions: Homo sapiens, dose 1-10000 nM
[6] = target: T1, Protein cereblon/Dual specificity tyrosine-phosphorylation-regulated kinase 1A; assay: PROTAC activity at CRBN/DYRK1A in Flp-In-T-REx-293 cells overexpressing GFP-DYRK1A assessed as initial rate of degradation at 1 uM measured upto 6 hrs by fluorescence based phase contrast microscopy analysis; format: cell-based
[7] = target: T1, Protein cereblon/Dual specificity tyrosine-phosphorylation-regulated kinase 1A; assay: PROTAC activity at CRBN/DYRK1A in HEK293 cells assessed as induction of degradation of DYRK1A at 100 nM measured for 48 hrs by Western blot analysis; format: cell-based
[8] = target: T2, Protein cereblon/Dual specificity tyrosine-phosphorylation-regulated kinase 1B (Homo sapiens) (UniProt Q9Y463+Q96SW2); assay: PROTAC activity at CRBN/DYRK1B in Flp-In-T-REx-293 cells overexpressing GFP-DYRK1B assessed as maximal reduction in GFP fluorescence at 1 uM measured upto 6 hrs by fluorescence based phase contrast microscopy analysis relative to control; format: cell-based
[9] = Metabolic stability in mouse liver microsomes assessed as intrinsic clearance; format: ADME, Microsome; conditions: read-out: CLH
[10] = target: T2, Protein cereblon/Dual specificity tyrosine-phosphorylation-regulated kinase 1B (Homo sapiens); assay: PROTAC activity at CRBN/DYRK1B in Flp-In-T-REx-293 cells overexpressing GFP-DYRK1B assessed as half life at 1 uM measured upto 6 hrs by fluorescence based phase contrast microscopy analysis; format: cell-based
[11] = target: T1, Protein cereblon/Dual specificity tyrosine-phosphorylation-regulated kinase 1A; assay: PROTAC activity at CRBN/DYRK1A in HEK293 cells assessed as induction of degradation of DYRK1A at 100 nM pretreated with CB-5083 followed by compound addition and incubated for 8 hrs; format: cell-based
[12] = Plasma protein binding (unknown origin); format: ADME, cell-free; conditions: read-out: PPB
[13] = MRT in mouse at 10 mg/kg, ip administered as single dose; format: ADME, organism-based; conditions: in vivo
[14] = Cmax in mouse at 10 mg/kg, ip administered as single dose; format: ADME, organism-based; conditions: in vivo
[15] = target: T1, Protein cereblon/Dual specificity tyrosine-phosphorylation-regulated kinase 1A; assay: PROTAC activity at CRBN/HibiT-tagged DYRK1A in HEK293 cells assessed as induction of degradation of DYRK1A at 1 uM measured after 24 hrs by Western blot analysis; format: cell-based
[16] = AUC infinity in mouse at 10 mg/kg, po administered as single dose; format: ADME, organism-based; conditions: in vivo
[17] = target: T1, Protein cereblon/Dual specificity tyrosine-phosphorylation-regulated kinase 1A; assay: PROTAC activity at CRBN/DYRK1A in human OVCAR-3 cells assessed as induction of degradation of DYRK1A at 100 nM incubated for 8 hrs; format: cell-based
[18] = target: T2, Protein cereblon/Dual specificity tyrosine-phosphorylation-regulated kinase 1B (Homo sapiens); assay: PROTAC activity at CRBN/DYRK1B in HEK293 cells assessed as induction of degradation of DYRK1B at 100 nM pretreated with MLN4924 followed by compound addition and incubated for 8 hrs; format: cell-based
[19] = target: T2, Protein cereblon/Dual specificity tyrosine-phosphorylation-regulated kinase 1B (Homo sapiens); assay: PROTAC activity at CRBN/DYRK1B in HEK293 cells assessed as induction of degradation of DYRK1B at 100 nM measured within 8 hrs by Western blot analysis; format: cell-based
[20] = target: T1, Protein cereblon/Dual specificity tyrosine-phosphorylation-regulated kinase 1A; assay: PROTAC activity at CRBN/DYRK1A in human SH-SY5Y cells assessed as induction of degradation of DYRK1A at 100 nM incubated for 24 hrs; format: cell-based
[21] = target: T1, Protein cereblon/Dual specificity tyrosine-phosphorylation-regulated kinase 1A; assay: Competitive binding affinity to CRBN/DYRK1A (unknown origin) assessed as dissociation constant; format: protein assay
[22] = Volume of distribution at steady state in mouse at 1 mg/kg, iv administered as single dose; format: ADME, organism-based; conditions: in vivo, read-out: Vdss
[23] = target: T1, Protein cereblon/Dual specificity tyrosine-phosphorylation-regulated kinase 1A; assay: Competitive binding affinity to CRBN/DYRK1A (unknown origin) assessed as association rate constant Kon; format: protein assay
[24] = target: T1, Protein cereblon/Dual specificity tyrosine-phosphorylation-regulated kinase 1A; assay: Competitive binding affinity to CRBN/DYRK1A (unknown origin) assessed as dissociation rate constant Koff; format: protein assay
[25] = Half life in mouse at 10 mg/kg, ip administered as single dose; format: ADME, organism-based; conditions: in vivo
[26] = target: T1, Protein cereblon/Dual specificity tyrosine-phosphorylation-regulated kinase 1A; assay: PROTAC activity at CRBN/DYRK1A in SH-SY5Y cells assessed as induction of degradation of DYRK1A at 100 nM incubated for 24 hrs; format: cell-based
[27] = target: Protein cereblon/Dual specificity tyrosine-phosphorylation-regulated kinase 1B (Homo sapiens, UniProt Q96SW2+Q9Y463); assay: Competitive binding affinity to CRBN/DYRK1B (unknown origin) assessed as dissociation constant; format: protein assay
[28] = target: T2, Protein cereblon/Dual specificity tyrosine-phosphorylation-regulated kinase 1B (Homo sapiens); assay: PROTAC activity at CRBN/DYRK1B in HEK293 cells overexpressing DYRK1B p65 assessed as induction of degradation of DYRK1B at 1 uM measured after 24 hrs by Western blot analysis; format: cell-based
[29] = AUClast in mouse at 1 mg/kg, iv administered as single dose; format: ADME, organism-based; conditions: in vivo
[30] = Permeability of the compound in human Caco-2 cells across apical to basolateral side; format: ADME, cell-based; conditions: read-out: permeability
[31] = target: T1, Protein cereblon/Dual specificity tyrosine-phosphorylation-regulated kinase 1A; assay: PROTAC activity at CRBN/DYRK1A in HEK293 cells assessed as induction of degradation of DYRK1A at 1 to 10000 nM incubated for 24 hrs in presence of 4-(3-(2-fluoro-4-(4-methylpiperazin-1-yl)phenyl)-2-methyl-3H-imidazo[4,5-b]pyridin-5-yl)pyridin-2-amine; format: cell-based; conditions: dose 1-10000 nM
[32] = Metabolic stability in human liver microsomes assessed as half life; format: ADME, Microsome
[33] = target: T2, Protein cereblon/Dual specificity tyrosine-phosphorylation-regulated kinase 1B (Homo sapiens); assay: PROTAC activity at CRBN/DYRK1B in HEK293 cells assessed as induction of degradation of DYRK1B at 100 nM pretreated with leucettine-41 followed by compound addition and incubated for 8 hrs; format: cell-based
[34] = Bioavailability in mouse at 10 mg/kg, ip administered as single dose; format: ADME, organism-based; conditions: in vivo
[35] = target: T2, Protein cereblon/Dual specificity tyrosine-phosphorylation-regulated kinase 1B (Homo sapiens); assay: PROTAC activity at CRBN/DYRK1B in HEK293 cells assessed as induction of degradation of DYRK1B at 100 nM pretreated with bortezomib followed by compound addition and incubated for 8 hrs; format: cell-based
[36] = target: T1, Protein cereblon/Dual specificity tyrosine-phosphorylation-regulated kinase 1A; assay: PROTAC activity at CRBN/HibiT-tagged DYRK1A in Flp-In-T-REx-293 cells assessed as induction of degradation of DYRK1A by measuring maximum efficacy at 1 uM measured after 24 hrs by NanoBiT luciferase assay relative to control; format: cell-based
[37] = Tmax in mouse at 10 mg/kg, ip administered as single dose; format: ADME, organism-based; conditions: in vivo
[38] = target: T1, Protein cereblon/Dual specificity tyrosine-phosphorylation-regulated kinase 1A; assay: PROTAC activity at CRBN/DYRK1A in HEK293 cells assessed as induction of degradation of DYRK1A by measuring maximum efficacy at 1 to 10000 nM incubated for 24 hrs relative to control; format: cell-based; conditions: dose 1-10000 nM

SMILES: Cc1nc2ccc(-c3ccnc(N)c3)nc2n1-c1ccc(N2CCN(CC#Cc3ccc(N4CCC(C(=O)N5CCC(n6cc(CNc7cccc8c7C(=O)N(C7CCC(=O)NC7=O)C8=O)cn6)CC5)CC4)nc3)CC2)c(F)c1 (stereo not drawn)
- Activity [1]: inactive
- T1/2 [2]: 0.95 h
- half-life [3]: 7.38 h
- Cmax [4]: 18.5 ng/mL
- Activity [5]: inactive
- Activity [6]: 0.74 h⁻¹
- Activity [7]: Active
- Emax [8]: 86%
- CLint scaled [9]: 3.1 mL/min/kg
- T1/2 [10]: 0.6 h
- Activity [11]: inactive
- fraction unbound [12]: < 0.0062
- MRT [13]: 5.77 h
- Cmax [14]: 8130 ng/mL
- Activity [15]: Active
- AUC(0-inf) [16]: 64 ng·h/mL
- Activity [17]: inactive
- Activity [18]: inactive
- Activity [19]: Active
- Activity [20]: Active
- Kd [21]: 6.3 nM
- Vd [22]: 0.614 L/kg
- K [23]: 1.83 10^5/M/s
- K [24]: 7.25 10^-4/s
- half-life [25]: 4.75 h
- Activity [26]: Active
- Kd [27]: 16 nM
- Activity [28]: inactive
- AUC(0-t) [29]: 2460 ng·h/mL
- Papp A→B [30]: < 0.27 ×10⁻⁶ cm/s
- Activity [31]: inactive
- half-life [32]: 2.28 h
- Activity [33]: inactive
- bioavailability [34]: 109%
- Activity [35]: inactive
- Emax [36]: 84%
- Tmax [37]: 0.25 h
- Emax [38]: 90%
